# From PubChem BioAssay AID330 (DTP/NCI, 2004)
# Values joined by “and” are separate entries in the source; they are usually repeats but may differ in a detail not shown here. Equal entries are not always repeated. Toxic doses and inconclusive results are not listed.
# Test system: P388 leukemia ip, CD2F1 mice, survival T/C
# Test: NCI In Vivo Anticancer Drug Screen. Data for tumor model P388 Leukemia (intraperitoneal) in CD2F1 (CDF1) mice
# Details: endpoint: median survival time, higher = longer survival
# In short: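 Mice carrying the transplanted tumor received test compound or vehicle. Survival was recorded in each group, and the value is the treated-group measurement divided by that of the vehicle-treated control group.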
# [1] = dose: 60.0 mg/kg/injection, schedule: Q01DX005 (ip), vehicle: saline with Tween-80
# [2] = dose: 120.0 mg/kg/injection, schedule: Q01DX005 (ip), vehicle: saline with Tween-80
# [3] = dose: 240.0 mg/kg/injection, schedule: Q01DX005 (ip), vehicle: saline with Tween-80
# [4] = dose: 50.0 mg/kg/injection, schedule: Q01DX005 (ip), vehicle: saline with Tween-80
# [5] = dose: 100.0 mg/kg/injection, schedule: Q01DX005 (ip), vehicle: saline with Tween-80
# [6] = dose: 200.0 mg/kg/injection, schedule: Q01DX005 (ip), vehicle: saline with Tween-80
# [7] = dose: 50.0 mg/kg/injection, schedule: Q01DX005 (ip), vehicle: Klucel (hydroxypropylcellulose) (HPC)
# [8] = dose: 200.0 mg/kg/injection, schedule: Q01DX005 (ip), vehicle: Klucel (hydroxypropylcellulose) (HPC)
structure (smiles),measurement,setting,value
CCC[CH2][Sn]1([CH2]CCC)[O]OC(c2ccccc2)[O]1 (configuration not stated),T/C,"dose: 4.5 mg/kg/injection, schedule: Q01DX009 (ip), vehicle: other",150 % of control
same,T/C,"dose: 625.0 micrograms/kg/injection, schedule: Q04DX003 (ip), vehicle: saline with Tween-80",115 % of control
same,T/C,"dose: 1250.0 micrograms/kg/injection, schedule: Q04DX003 (ip), vehicle: saline with Tween-80",120 % of control
same,T/C,"dose: 5000.0 micrograms/kg/injection, schedule: Q04DX003 (ip), vehicle: saline with Tween-80",165 % of control
COc1cc(/C=C2/SC(=S)NC2=O)cc(OC)c1OC,T/C,"dose: 25.0 mg/kg/injection, schedule: Q01DX009 (ip), vehicle: saline with Tween-80",100 % of control
same,T/C,"dose: 50.0 mg/kg/injection, schedule: Q01DX009 (ip), vehicle: saline with Tween-80",102 % of control
same,T/C,"dose: 100.0 mg/kg/injection, schedule: Q01DX009 (ip), vehicle: saline with Tween-80",96 % of control
same,T/C,"dose: 200.0 mg/kg/injection, schedule: Q01DX009 (ip), vehicle: saline with Tween-80",96 % of control
O=C1C(Cl)=C(Sc2nc3ccccc3s2)C(=O)c2ccccc21,T/C,"dose: 12.5 mg/kg/injection, schedule: Q01DX005 (ip), vehicle: saline with Tween-80",100 % of control
same,T/C,"dose: 25.0 mg/kg/injection, schedule: Q01DX005 (ip), vehicle: saline with Tween-80",100 % of control
C=CC1=C(C)c2cc3[n-]c(c(CC(=O)O)c4nc(cc5[n-]c(cc1n2)c(C)c5CC)C(C)=C4C(=O)O)C(CCC(=O)O)C3C.[Pt+2] (configuration not stated),T/C,"dose: 25.0 mg/kg/injection, schedule: Q04DX002 (ip), vehicle: saline",96 % of control
same,T/C,"dose: 50.0 mg/kg/injection, schedule: Q04DX002 (ip), vehicle: saline",99 % of control
same,T/C,"dose: 100.0 mg/kg/injection, schedule: Q04DX002 (ip), vehicle: saline",97 % of control
same,T/C,"dose: 200.0 mg/kg/injection, schedule: Q04DX002 (ip), vehicle: saline",88 % of control
same,T/C,"dose: 400.0 mg/kg/injection, schedule: Q04DX002 (ip), vehicle: saline",90 % of control
[CH2+][B-]1(C)n2ccc[n+]2[B-](C)(C)[n+]2cccn21,T/C,[1],90 % of control
same,T/C,[2],98 % of control
same,T/C,[3],93 % of control
CCN(CC)C(=O)c1ccc2c(c1OCOC)CCC2,T/C,[4],107 % of control
same,T/C,[5],97 % of control
same,T/C,[6],92 % of control
COC(=O)C1=CO[C@@H](O)[C@@H]2C(C)OC(=O)C[C@H]12 (some centres not stated),T/C,"dose: 60.0 mg/kg/injection, schedule: Q01DX005 (ip), vehicle: saline",104 % of control
same,T/C,"dose: 120.0 mg/kg/injection, schedule: Q01DX005 (ip), vehicle: saline",104 % of control
same,T/C,"dose: 240.0 mg/kg/injection, schedule: Q01DX005 (ip), vehicle: saline",109 % of control
CC(=O)/C(Cl)=N\O,T/C,"dose: 3.12 mg/kg/injection, schedule: Q01DX005 (ip), vehicle: saline",100 % of control
same,T/C,"dose: 6.25 mg/kg/injection, schedule: Q01DX005 (ip), vehicle: saline",107 % of control
same,T/C,"dose: 12.5 mg/kg/injection, schedule: Q01DX005 (ip), vehicle: saline",109 % of control
CC1(C)NC(=O)NC(=O)C1Br (configuration not stated),T/C,[4],99 % of control
same,T/C,[5],102 % of control
same,T/C,[6],103 % of control
O=C1O/C(=C(/C(=O)O)c2ccc(O)cc2)C(O)=C1c1cc2c3c(c(O)cc(C4=C(O)/C(=C(\C(=O)O)c5ccc(O)cc5)OC4=O)c3c1)OC2=O,T/C,"dose: 10.25 mg/kg/injection, schedule: Q01DX005 (ip), vehicle: DMSO",94 % of control
same,T/C,"dose: 12.0 mg/kg/injection, schedule: Q01DX005 (ip), vehicle: DMSO",98 % of control
same,T/C,"dose: 20.5 mg/kg/injection, schedule: Q01DX005 (ip), vehicle: DMSO",110 % of control
same,T/C,"dose: 24.0 mg/kg/injection, schedule: Q01DX005 (ip), vehicle: DMSO",106 % of control
same,T/C,"dose: 41.0 mg/kg/injection, schedule: Q01DX005 (ip), vehicle: DMSO",106 % of control
COc1c2occc2c(S(=O)(=O)Cl)c2ccc(=O)oc12,T/C,"dose: 100.0 mg/kg/injection, schedule: Q01DX001 (ip), vehicle: saline with Tween-80",95 % of control
same,T/C,"dose: 200.0 mg/kg/injection, schedule: Q01DX001 (ip), vehicle: saline with Tween-80",109 % of control
same,T/C,"dose: 400.0 mg/kg/injection, schedule: Q01DX001 (ip), vehicle: saline with Tween-80",100 % of control
O=c1n(-c2ccccc2)c(=O)n2n1C1C3C4C5C3C2C5(F)C41 (configuration not stated),T/C,"dose: 100.0 mg/kg/injection, schedule: Q04DX003 (ip), vehicle: Klucel (hydroxypropylcellulose) (HPC)",103 % of control
same,T/C,"dose: 200.0 mg/kg/injection, schedule: Q04DX003 (ip), vehicle: Klucel (hydroxypropylcellulose) (HPC)",104 % of control
COC(=O)c1[nH]c(=O)c(C#N)c(C(=O)OC)c1C(=O)/C=C/c1ccccc1,T/C,[1],100 % of control
same,T/C,[2],96 % of control
same,T/C,[3],90 % of control
CCc1nc(N)nc(N)c1-c1ccc2nn(-c3ccccc3)[n+]([O-])c2c1,T/C,[7],108 % of control
same,T/C,[8],87 % of control
CNC(=O)OCc1ccc(NCCN(C)C)c2c(=O)c3cc(OC(=O)NC)ccc3oc12,T/C,"dose: 3.13 mg/kg/injection, schedule: Q01DX005 (ip), vehicle: Klucel (hydroxypropylcellulose) (HPC)",118 % of control
same,T/C,"dose: 6.25 mg/kg/injection, schedule: Q01DX005 (ip), vehicle: Klucel (hydroxypropylcellulose) (HPC)",123 % of control
Cn1c(=O)c2c(ncn2-c2ccc(N)cn2)n(C)c1=O,T/C,"dose: 12.5 mg/kg/injection, schedule: Q01DX005 (ip), vehicle: distilled water + alcohol",98 % of control
same,T/C,"dose: 25.0 mg/kg/injection, schedule: Q01DX005 (ip), vehicle: distilled water + alcohol",104 % of control
same,T/C,[7],96 % of control
same,T/C,"dose: 50.0 mg/kg/injection, schedule: Q01DX005 (ip), vehicle: distilled water + alcohol",100 % of control
CC1=CC(=Nc2ccc(N(C)C)cc2)C=CC1=O,T/C,"dose: 3.13 mg/kg/injection, schedule: Q01DX009 (ip), vehicle: saline with Tween-80",104 % of control and 115 % of control
same,T/C,"dose: 6.25 mg/kg/injection, schedule: Q01DX009 (ip), vehicle: saline with Tween-80",107 % of control and 115 % of control
same,T/C,"dose: 12.5 mg/kg/injection, schedule: Q01DX009 (ip), vehicle: saline with Tween-80",111 % of control and 114 % of control
CN(C)c1ccc(/C=N/NC(=O)CC2CCCCC2)cc1,T/C,[1],100 % of control
same,T/C,[2],108 % of control
same,T/C,[3],102 % of control
Cc1ccc(S(=O)(=O)NC(=S)Nc2ccccc2)cc1,T/C,"dose: 100.0 mg/kg/injection, schedule: Q04DX003 (ip), vehicle: saline with Tween-80",99 % of control
same,T/C,"dose: 200.0 mg/kg/injection, schedule: Q04DX003 (ip), vehicle: saline with Tween-80",108 % of control
same,T/C,"dose: 400.0 mg/kg/injection, schedule: Q04DX003 (ip), vehicle: saline with Tween-80",100 % of control
O=C1CCC2CCCCC2N1 (configuration not stated),T/C,"dose: 50.0 mg/kg/injection, schedule: Q01DX009 (ip), vehicle: Klucel (hydroxypropylcellulose) (HPC)",94 % of control
same,T/C,"dose: 100.0 mg/kg/injection, schedule: Q01DX009 (ip), vehicle: Klucel (hydroxypropylcellulose) (HPC)",86 % of control
O=C(O)CC(O)(CC(=O)O)C(=O)O,T/C,"dose: 0.12 % in 0.5 ml injection vol, schedule: Q01DX009 (ip), vehicle: water",100 % of control
same,T/C,"dose: 0.25 % in 0.5 ml injection vol, schedule: Q01DX009 (ip), vehicle: water",99 % of control and 94 % of control
same,T/C,"dose: 0.5 % in 0.5 ml injection vol, schedule: Q01DX009 (ip), vehicle: water",88 % of control and 90 % of control and 94 % of control
CSc1nc(COC(=O)NC(C)C)c(COC(=O)NC(C)C)n1-c1ccccc1,T/C,"dose: 12.5 mg/kg/injection, schedule: Q01DX005 (ip), vehicle: Klucel + Tween-80",111 % of control
same,T/C,"dose: 25.0 mg/kg/injection, schedule: Q01DX005 (ip), vehicle: Klucel + Tween-80",101 % of control
same,T/C,"dose: 50.0 mg/kg/injection, schedule: Q01DX005 (ip), vehicle: Klucel + Tween-80",95 % of control
same,T/C,"dose: 100.0 mg/kg/injection, schedule: Q01DX005 (ip), vehicle: Klucel + Tween-80",97 % of control
same,T/C,"dose: 200.0 mg/kg/injection, schedule: Q01DX005 (ip), vehicle: Klucel + Tween-80",90 % of control
same,T/C,"dose: 400.0 mg/kg/injection, schedule: Q01DX005 (ip), vehicle: Klucel + Tween-80",100 % of control
c1ccc(C2C(c3ccccn3)C(c3ccccn3)C2c2ccccn2)nc1 (configuration not stated),T/C,"dose: 100.0 mg/kg/injection, schedule: Q01DX001 (ip), vehicle: Klucel (hydroxypropylcellulose) (HPC)",95 % of control
same,T/C,"dose: 200.0 mg/kg/injection, schedule: Q01DX001 (ip), vehicle: Klucel (hydroxypropylcellulose) (HPC)",94 % of control
same,T/C,"dose: 400.0 mg/kg/injection, schedule: Q01DX001 (ip), vehicle: Klucel (hydroxypropylcellulose) (HPC)",95 % of control
C=C(Cl)C(=NC(C)(C)C)Nc1ccc(C(=O)OCC)cc1,T/C,[7],103 % of control
same,T/C,"dose: 100.0 mg/kg/injection, schedule: Q01DX005 (ip), vehicle: Klucel (hydroxypropylcellulose) (HPC)",100 % of control
same,T/C,[8],118 % of control
